“Also recorded” adds a separate entry of the source.
What was measured:
MuSCs [1] = test: EdU incorporation proliferation assay; format: cell-based, mouse; details: PGE2 10 ng/ml for 24 h, EdU 1 hr
Description: (§1) Proliferation assays: To assay proliferation, we used three different assays (hemocytometer, VisionBlue, and EdU). For each, we seeded MuSCs on flat hydrogels (hemocytometer and VisionBlue) or collagen-coated plates (EdU assay) at a density of 500 cells per cm^2 surface area. For hemocytometer cell number count, we collected cells at indicated timepoints by incubation with 0.5% trypsin in PBS for 5 min at 37° C. and quantified them using a hemocytometer at least 3 times. Additionally, we used the VisionBlue Quick Cell Viability Fluorometric Assay Kit (BioVision, catalog #K303) as a readout for cell growth in culture. Briefly, we incubated MuSCs with 10% VisionBlue in culture medium for 3 h, and measured fluorescence intensity on a fluorescence plate reader (Infinite M1000 PRO, Tecan) at Ex=530-570 nm, Em=590-620 nm. […] We quantified EdU positive cells using the MetaMorph Image Analysis software (Molecular Devices). Data analyses were blinded, where researchers performing cell scoring were unaware of the treatment condition given to sample groups analyzed.
(§2) To assay proliferation, we used three different assays (hemocytometer, VisionBlue, and EdU). […] For hemocytometer cell number count, we collected cells at indicated timepoints by incubation with 0.5% trypsin in PBS for 5 min at 37° C. and quantified them using a hemocytometer at least 3 times. […]

MuSCs [2] = test: VisionBlue metabolic viability dose-response assay; format: cell-based, mouse; details: dose-response 1-200 ng/ml PGE2
Description: as §1, §2

aged MuSCs = test: Clonal aged MuSC proliferation and fate by time-lapse microscopy (48 h); format: cell-based, mouse
Description: Clonal muscle stem cell proliferation and fate analyses: We assayed clonal muscle stem cell proliferation by time-lapse microscopy as previously described^56. Briefly, we treated isolated aged MuSCs with PGE2 (Cayman Chemical) or vehicle (DMSO) for 24 hr. After five days of growth on hydrogels, cells were reseeded at a density of 500 cells per cm^2 surface area in hydrogel microwells with 600 μm diameter. For time-lapse microscopy we monitored cell proliferation for those wells with single cells beginning 12 hr (day 0) to two days after seeding and recorded images every 3 min at 10× magnification using a PALM/AxioObserver Z1 system (Carl Zeiss MicroImaging) with a custom environmental control chamber and motorized stage. We changed medium every other day in between the acquisition time intervals. We analyzed time-lapse image sequences using the Baxter Algorithms for Cell Tracking and Lineage Reconstruction to identify and track single cells and generate lineage trees^5,6,8-10.
Viable and dead cells were distinguished in time-lapse sequences based on phase-contrast boundary and motility maintenance or loss, respectively. […] The values were estimated using the equations described in^6, and found in Table 1. We denote the proliferation rates in the two intervals p24 and p48 and the corresponding death rates d24 and d48. […] The modeled cell counts in the two time intervals are given by […]

TA muscles = test: In vivo muscle force after downhill treadmill exercise, aged mice, TA; set-up: species or system mouse; details: aged (18-22 mo) mice, 10 μg PGE2 after each run in week 1, force at week 5
Description: FIGS. 5Q and 5R show twitch force and tetanic force data, respectively, from a separate experiment in which mice were treated with PGE2 or vehicle only. Importantly, we observed an increase in isometric force in aged (18-22 mo) mice injected with PGE2 and subjected to downhill treadmill exercise. Briefly, aged mice ran daily (at 20 degrees downhill and 14 meter/min maximum speed for 10 min) for 5 days and rested on days 6 and 7. This eccentric exercise regime leads to MuSC expansion due to a cycle of muscle degeneration and regeneration. […] During week 2, mice were subjected to 5 days treadmill run only.

[3] = test system: prostaglandin receptors (Ptger1-4); test: Quantitative RT-PCR of prostaglandin receptors in MuSCs; format: cell-based, mouse; details: 24 hr PGE2 treatment of MuSCs
Description: Quantitative RT-PCR: We isolated RNA from MuSCs using the RNeasy Micro Kit (Qiagen). […] We reverse-transcribed cDNA from total mRNA from each sample using the SensiFAST™ cDNA Synthesis Kit (Bioline). We subjected cDNA to RT-PCR using SYBR Green PCR Master Mix (Applied Biosystems) or TaqMan Assays (Applied Biosystems) in an ABI 7900HT Real-Time PCR System (Applied Biosystems). We cycled samples at 95° C. for 10 min and then 40 cycles at 95° C. for 15 s and 60° C. for 1 min. […] For SYBR Green qRT-PCR, we used the following primer sequences: Gapdh, forward 5′-[sequence]-3′ (SEQ ID NO: 1), reverse 5′-[sequence]-3′ (SEQ ID NO: 2); Hpgd, forward 5′-[sequence]-3′ (SEQ ID NO: 3), reverse 5′-[sequence]-3′ (SEQ ID NO: 4); Ptges, forward 5′-[sequence]-3′ (SEQ ID NO: 5), reverse 5′-[sequence]-3′ (SEQ ID NO: 6); Ptges2, forward 5′-[sequence]-3′ (SEQ ID NO: 7), reverse 5′-[sequence]-3′ (SEQ ID NO: 8); Ptger1, forward 5′ [sequence]-3′ (SEQ ID NO: 9), reverse, 5′ [sequence]-3′ (SEQ ID NO: 10), and Ptger2, forward 5′-[sequence]-3′ (SEQ ID NO: 11), reverse 5′-[sequence]-3′ (SEQ ID NO: 12). TaqMan Assays (Applied Biosystems) were used to quantify Pax7, Myogenin, Slco2a1 (PGT), Ptger3 and Ptger4 in samples according to the manufacturer instructions with the TaqMan Universal PCR Master Mix reagent kit (Applied Biosystems). Transcript levels were expressed relative to Gapdh levels. […]

[4] = aged MuSC clones, acute PGE2 treatment, time-lapse 48 h
[5] = first 24 hour interval, aged MuSCs
[6] = second 24 hour interval, aged MuSCs
[7] = transient 1 day PGE2, 48 h tracking

Compound: CCCCC[C@H](O)/C=C/[C@H]1[C@H](O)CC(=O)[C@@H]1C/C=C\CCCC(=O)O [PGE2, prostaglandin E2]
- cell division assayed by EdU incorporation (MuSCs [1]): increased cell division; also recorded: increase in cell division
- lowest drug concentration that promotes a robust MuSC proliferation response (MuSCs [2]): 10 ng/mL
- percent increase in dead cell count (aged MuSCs; [4]): 0.1%
- percent increase in live cell count (aged MuSCs; [4]): 5.4%
- d24, estimated death rate (aged MuSCs; [5]): 0.0067 per hours
- p24, estimated proliferation rate (aged MuSCs; [5]): 0.0475 per hours
- d48, estimated death rate (aged MuSCs; [6]): 0.0012 per hours
- p48, estimated proliferation rate (aged MuSCs; [6]): 0.0538 per hours
- cell death in aged MuSC clones (aged MuSCs; [7]): profound reduction in cell death
- proliferation of aged MuSC clones (aged MuSCs; [7]): marked increase in proliferation
- cumulative cell numbers of aged MuSC clones (aged MuSCs; transient 1 day PGE2, 48 h tracking, spanning 6 generations): remarkable increase in cumulative cell numbers
- force (twitch and tetanic) of TA muscles (TA muscles): significant increase in force
- transcript levels of prostaglandin receptors (Ptger1-4) after PGE2 treatment [3]: only receptors upregulated after PGE2 treatment of MuSCs are Ptger1 and Ptger4; also recorded: the most highly expressed receptor in MuSCs is Ptger4

Reference: patent US11738031B2, “Compositions and methods for preventing or treating muscle conditions” (The Board of Trustees of the Leland Stanford Junior …, priority 2017, dated 2023)
